Test results taken from PMC9205905, “Core and rod structures of a thermophilic cyanobacterial light-harvesting phycobilisome” (Nature Communications, 2022).

Legend:
[1] = biological target: T1, CpcB (phycocyanin beta-subunit) (Thermostichus vulcanus, UniProt Q71RW8); experiment: cryo-EM structure, […] Å; format: binding; conditions: covalent thioether to Cys84 and Cys155 of CpcB
T1 construct: native phycocyanin rod dissociated from intact phycobilisomes; two PC hexamers with linkers CpcC, CpcD, CpcG; with C-phycocyanin alpha subunit

[2] = biological target: T2, CpcA (phycocyanin alpha-subunit) (Thermostichus vulcanus, UniProt Q9AM02); experiment: cryo-EM structure, […] Å; format: binding; conditions: covalent thioether to Cys84 of CpcA
T2 construct: native phycocyanin rod dissociated from intact phycobilisomes; two PC hexamers with linkers CpcC, CpcD, CpcG; with C-phycocyanin beta subunit

**Q.** Which results are given for `CC=C1C(=Cc2[nH]c(C=C3N=C(C=C4NC(=O)C(CC)=C4C)C(C)=C3CCC(=O)O)c(CCC(=O)O)c2C)NC(=O)[C@@H]1C` [phycocyanobilin]?
**A.** cryo-EM structure, 4.2 Å [1]: Arrangement of chromophores in the PC rod; cryo-EM structure, 4.2 Å [2]: Arrangement of chromophores in the PC rod
